# Measurements published in publication PMC6747724, “Dynamic Metabolic Rewiring Enables Efficient Acetyl Coenzyme A Assimilation in Paracoccus denitrificans” (mBio, 2019).
# pIC50: −log10 of the molar value.
# Target: T1, Isocitrate lyase (Icl) (Paracoccus denitrificans, UniProt A1B1S0)
# T1 construct: gene Pden_1363; Recombinant His6-tagged Icl (Pden_1363)
# T1 sequence (A1B1S0 1-535): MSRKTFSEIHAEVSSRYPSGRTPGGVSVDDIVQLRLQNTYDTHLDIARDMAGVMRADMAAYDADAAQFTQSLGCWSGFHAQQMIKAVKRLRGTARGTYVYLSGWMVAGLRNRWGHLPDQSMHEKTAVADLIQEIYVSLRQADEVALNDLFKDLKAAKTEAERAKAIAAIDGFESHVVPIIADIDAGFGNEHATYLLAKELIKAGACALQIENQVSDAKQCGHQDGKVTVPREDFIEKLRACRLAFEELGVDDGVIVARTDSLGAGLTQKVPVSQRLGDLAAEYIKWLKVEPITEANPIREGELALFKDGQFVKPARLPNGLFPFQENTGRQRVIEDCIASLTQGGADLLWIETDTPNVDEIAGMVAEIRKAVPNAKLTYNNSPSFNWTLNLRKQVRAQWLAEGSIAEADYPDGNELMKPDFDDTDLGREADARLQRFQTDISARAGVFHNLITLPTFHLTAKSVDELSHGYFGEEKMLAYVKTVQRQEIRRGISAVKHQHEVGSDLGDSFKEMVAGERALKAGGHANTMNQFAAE
# Test: spectrophotometric phenylhydrazine-glyoxylate assay with purified enzyme, […] min preincubation with 3-NPA at […]°C
# Format: biochemical
smiles,measurement,value
"O=C(O)CC[N+](=O)[O-] [3-NPA, 3-nitropropionate]",pIC50,4.47
